6 compounds from BindingDB's records for PubMed 35114538 (Institute For Pharmaceutical Research Saarland (Hips), 2022) can be followed below.

Where a SMILES comes first, the peptide text is derived from it. Bridges are numbered along the chain shown (N, C = ends). Triazole bridges read from a SMILES are 1,4-linked. [ ]: non-standard residue; d: D form. Ala(indol-2-yl) = N[C@@H](Cc1cc2ccccc2[nH]1)C(=O)O; Dap(N3) = [N-]=[N+]=NC[C@H](N)C(=O)O; Aha = [N-]=[N+]=NCC[C@H](N)C(=O)O; Pra = C#CC[C@H](N)C(=O)O

The test has as its target Carbon storage regulator homolog RsmA (Pseudomonas aeruginosa). Description: Binding affinity towards Pseudomonas aeruginosa RsmA measured by fluorescence polarization assay. On the technique in general: In fluorescence polarisation assays a small probe gives low polarisation when free and higher when bound to something large.
`CC(=O)N[C@H](C(=O)N[C@H]1Cc2cnnn2CC[C@@H](C(=O)N[C@@H](Cc2c[nH]c3ccccc23)C(N)=O)NC(=O)[C@H](CC(C)C)NC(=O)[C@H](CCC(=O)O)NC(=O)[C@H](CO)NC1=O)C(C)C`: the IC50 turned out to be 44.4 µM.

For the compound `CC(=O)N[C@H](C(=O)N[C@H]1CCn2nncc2C[C@@H](C(=O)N[C@@H](Cc2c[nH]c3ccccc23)C(N)=O)NC(=O)[C@H](CC(C)C)NC(=O)[C@H](CCC(=O)O)NC(=O)[C@H](CO)NC1=O)C(C)C`, the IC50 is 37 µM.

`CC(=O)N[C@H](C(=O)N[C@H]1CSSC[C@@H](C(=O)N[C@@H](Cc2cc3ccccc3[nH]2)C(N)=O)NC(=O)[C@H](CC(C)C)NC(=O)[C@H](CCC(=O)O)NC(=O)[C@H](CO)NC1=O)C(C)C` (Ac-VCSELC[Ala(indol-2-yl)]-NH2; disulfide 2-6) displayed a concentration for half-maximal inhibition (IC50) of 272 µM.

Take `CC(=O)N[C@H](C(=O)N[C@H]1Cn2cc(nn2)C[C@@H](C(=O)N[C@@H](Cc2c[nH]c3ccccc23)C(N)=O)NC(=O)[C@H](CC(C)C)NC(=O)[C@H](CCC(=O)O)NC(=O)[C@H](CO)NC1=O)C(C)C` (Ac-V[Dap(N3)]SEL[Pra]W-NH2; triazole 2-6): the IC50 was 22.8 µM.

`CC(=O)N[C@H](C(=O)N[C@H]1Cc2cn(nn2)CC[C@@H](C(=O)N[C@@H](Cc2c[nH]c3ccccc23)C(N)=O)NC(=O)[C@H](CC(C)C)NC(=O)[C@H](CCC(=O)O)NC(=O)[C@H](CO)NC1=O)C(C)C` (Ac-V[Pra]SEL[Aha]W-NH2; triazole 2-6) displayed an IC50 of 30.2 µM.

As to `CC(=O)N[C@H](C(=O)N[C@H]1Cc2cn(nn2)C[C@@H](C(=O)N[C@@H](Cc2c[nH]c3ccccc23)C(N)=O)NC(=O)[C@H](CC(C)C)NC(=O)[C@H](CCC(=O)O)NC(=O)[C@H](CO)NC1=O)C(C)C` (Ac-V[Pra]SEL[Dap(N3)]W-NH2; triazole 2-6), the IC50 turned out to be 20 µM.

What is called IC50 is the concentration at which inhibition is half-maximal. A low value points to inhibition by little substance.
